Experimental data as given in the NIST ThermoML archive (doi:10.1016/j.jct.2016.08.008).
Numbers after ± are expanded uncertainties.

Experiment: activity coefficient (dimensionless); of the first substance listed, at infinite dilution; xn = mol fraction of the nth substance listed
Conditions: 101.33 kPa, Liquid, Chromatography, x1 = 0

Row | SMILES | activity coefficient (318.15 K) | activity coefficient (328.15 K) | activity coefficient (338.15 K) | activity coefficient (348.15 K) | activity coefficient (358.15 K) | activity coefficient (368.15 K)
1 | COC(C)=O [methyl ethanoate] + CCCCCCCCCCCCn1cc[n+](C)c1.O=S(=O)([N-]S(=O)(=O)C(F)(F)F)C(F)(F)F | 0.503 ± 0.038 | 0.525 ± 0.039 | 0.546 ± 0.04 | 0.566 ± 0.041 | 0.586 ± 0.042 | 0.606 ± 0.042
2 | Cc1cccc(C)c1 [1,3-dimethylbenzene] + CCCCCCCCCCCCn1cc[n+](C)c1.O=S(=O)([N-]S(=O)(=O)C(F)(F)F)C(F)(F)F | 0.874 ± 0.056 | 0.918 ± 0.058 | 0.96 ± 0.06 | 1 ± 0.06 | 1.04 ± 0.07 | 1.09 ± 0.07
3 | CCOCC [diethyl ether] + CCCCCCCCCCCCn1cc[n+](C)c1.O=S(=O)([N-]S(=O)(=O)C(F)(F)F)C(F)(F)F | 0.983 ± 0.062 | 1.03 ± 0.06 | 1.07 ± 0.07 | 1.12 ± 0.07 | 1.16 ± 0.07 | 1.2 ± 0.08
4 | CCCCCCCC [octane] + CCCCCCCCCCCCn1cc[n+](C)c1.O=S(=O)([N-]S(=O)(=O)C(F)(F)F)C(F)(F)F | 4.17 ± 0.28 | 4.22 ± 0.29 | 4.27 ± 0.29 | 4.32 ± 0.29 | 4.37 ± 0.3 | 4.42 ± 0.3
5 | C=CCCC [1-pentene] + CCCCCCCCCCCCn1cc[n+](C)c1.O=S(=O)([N-]S(=O)(=O)C(F)(F)F)C(F)(F)F | 1.82 ± 0.12 | 1.88 ± 0.13 | 1.93 ± 0.13 | 1.99 ± 0.14 | 2.04 ± 0.14 | 2.08 ± 0.14
6 | CCOC(C)=O [ethyl acetate] + CCCCCCCCCCCCn1cc[n+](C)c1.O=S(=O)([N-]S(=O)(=O)C(F)(F)F)C(F)(F)F | 0.541 ± 0.04 | 0.567 ± 0.041 | 0.593 ± 0.042 | 0.619 ± 0.043 | 0.645 ± 0.044 | 0.67 ± 0.045
7 | C=CCCCCCC [oct-1-ene] + CCCCCCCCCCCCn1cc[n+](C)c1.O=S(=O)([N-]S(=O)(=O)C(F)(F)F)C(F)(F)F | 3.03 ± 0.21 | 3.1 ± 0.21 | 3.17 ± 0.22 | 3.23 ± 0.22 | 3.29 ± 0.22 | 3.35 ± 0.23
8 | O [water] + CCCCCCCCCCCCn1cc[n+](C)c1.O=S(=O)([N-]S(=O)(=O)C(F)(F)F)C(F)(F)F | 4.49 ± 0.31 | 4.02 ± 0.27 | 3.64 ± 0.25 | 3.31 ± 0.23 | 3.03 ± 0.21 | 2.78 ± 0.19
9 | CCCCCCCCCC [decane] + CCCCCCCCCCCCn1cc[n+](C)c1.O=S(=O)([N-]S(=O)(=O)C(F)(F)F)C(F)(F)F | 5.82 ± 0.4 | 5.88 ± 0.4 | 5.95 ± 0.41 | 6 ± 0.41 | 6.06 ± 0.41 | 6.12 ± 0.42
10 | CC(C)=O [acetone] + CCCCCCCCCCCCn1cc[n+](C)c1.O=S(=O)([N-]S(=O)(=O)C(F)(F)F)C(F)(F)F | 0.353 ± 0.032 | 0.369 ± 0.033 | 0.386 ± 0.033 | 0.401 ± 0.034 | 0.417 ± 0.035 | 0.432 ± 0.035
11 | CCCCCCC [heptane] + CCCCCCCCCCCCn1cc[n+](C)c1.O=S(=O)([N-]S(=O)(=O)C(F)(F)F)C(F)(F)F | 3.55 ± 0.24 | 3.6 ± 0.25 | 3.65 ± 0.25 | 3.7 ± 0.25 | 3.74 ± 0.25 | 3.78 ± 0.26
12 | CCCC=O [butanal] + CCCCCCCCCCCCn1cc[n+](C)c1.O=S(=O)([N-]S(=O)(=O)C(F)(F)F)C(F)(F)F | 0.464 ± 0.036 | 0.486 ± 0.037 | 0.51 ± 0.038 | 0.531 ± 0.039 | 0.554 ± 0.04 | 0.575 ± 0.041
13 | CCCC(C)=O [pentan-2-one] + CCCCCCCCCCCCn1cc[n+](C)c1.O=S(=O)([N-]S(=O)(=O)C(F)(F)F)C(F)(F)F | 0.421 ± 0.035 | 0.445 ± 0.036 | 0.468 ± 0.037 | 0.492 ± 0.037 | 0.516 ± 0.038 | 0.539 ± 0.039
14 | CCC(C)(C)OC [2-methoxy-2-methylbutane] + CCCCCCCCCCCCn1cc[n+](C)c1.O=S(=O)([N-]S(=O)(=O)C(F)(F)F)C(F)(F)F | 1.11 ± 0.07 | 1.17 ± 0.07 | 1.23 ± 0.08 | 1.29 ± 0.08 | 1.35 ± 0.09 | 1.4 ± 0.09
15 | C=CCCCC [hex-1-ene] + CCCCCCCCCCCCn1cc[n+](C)c1.O=S(=O)([N-]S(=O)(=O)C(F)(F)F)C(F)(F)F | 2.15 ± 0.15 | 2.2 ± 0.15 | 2.25 ± 0.15 | 2.29 ± 0.16 | 2.34 ± 0.16 | 2.38 ± 0.16
16 | CCO [ethanol] + CCCCCCCCCCCCn1cc[n+](C)c1.O=S(=O)([N-]S(=O)(=O)C(F)(F)F)C(F)(F)F | 1.38 ± 0.09 | 1.3 ± 0.08 | 1.23 ± 0.08 | 1.17 ± 0.07 | 1.11 ± 0.07 | 1.06 ± 0.07
17 | CC(C)O [propan-2-ol] + CCCCCCCCCCCCn1cc[n+](C)c1.O=S(=O)([N-]S(=O)(=O)C(F)(F)F)C(F)(F)F | 1.34 ± 0.09 | 1.26 ± 0.08 | 1.18 ± 0.08 | 1.12 ± 0.07 | 1.07 ± 0.07 | 1.02 ± 0.06
18 | CC(C)CO [2-methyl-1-propanol] + CCCCCCCCCCCCn1cc[n+](C)c1.O=S(=O)([N-]S(=O)(=O)C(F)(F)F)C(F)(F)F | 1.52 ± 0.1 | 1.42 ± 0.09 | 1.34 ± 0.09 | 1.26 ± 0.08 | 1.19 ± 0.08 | 1.13 ± 0.07
19 | c1ccsc1 [thiophene] + CCCCCCCCCCCCn1cc[n+](C)c1.O=S(=O)([N-]S(=O)(=O)C(F)(F)F)C(F)(F)F | 0.559 ± 0.04 | 0.579 ± 0.041 | 0.6 ± 0.042 | 0.62 ± 0.043 | 0.639 ± 0.044 | 0.658 ± 0.045
20 | CCCCO [butan-1-ol] + CCCCCCCCCCCCn1cc[n+](C)c1.O=S(=O)([N-]S(=O)(=O)C(F)(F)F)C(F)(F)F | 1.55 ± 0.1 | 1.46 ± 0.1 | 1.38 ± 0.09 | 1.31 ± 0.09 | 1.24 ± 0.08 | 1.19 ± 0.08
21 | C1COCCO1 [1,4-dioxane] + CCCCCCCCCCCCn1cc[n+](C)c1.O=S(=O)([N-]S(=O)(=O)C(F)(F)F)C(F)(F)F | 0.474 ± 0.037 | 0.499 ± 0.038 | 0.524 ± 0.039 | 0.548 ± 0.04 | 0.572 ± 0.041 | 0.597 ± 0.042
22 | C1CCCCC1 [cyclohexane] + CCCCCCCCCCCCn1cc[n+](C)c1.O=S(=O)([N-]S(=O)(=O)C(F)(F)F)C(F)(F)F | 2.14 ± 0.15 | 2.15 ± 0.15 | 2.17 ± 0.15 | 2.18 ± 0.15 | 2.19 ± 0.15 | 2.21 ± 0.15
23 | CC(C)(C)O [2-methylpropan-2-ol] + CCCCCCCCCCCCn1cc[n+](C)c1.O=S(=O)([N-]S(=O)(=O)C(F)(F)F)C(F)(F)F | 1.12 ± 0.07 | 1.08 ± 0.07 | 1.04 ± 0.07 | 0.998 ± 0.062 | 0.964 ± 0.061 | 0.933 ± 0.059
